# How the values were obtained:
# normal cell lines = test: MTT assay cytotoxicity, normal cell lines (summary); format: cell-based
# Procedure: (§1) The compound isolated from Osmunda japonica, prepared in section 1 of <Example 1>, was investigated for cytotoxicity using MTT assay.
# (§2) MTT assay was as follows.
# (§3) Cells were incubated at 1×10^3 cells/well in a 96-well plate containing DMEM with 10% fetal bovine serum (FBS) at 5% CO2 and 37° C., and then osmundacetone was added to the cell medium, followed by incubation for 24 hours. Thereafter, 100 μL of MTT (0.5 mg/ml PBS) was administered, followed by incubation for 2 hours. Thereafter, the medium was removed from each well, and 100 μL of DMSO was added. After incubation for 10 minutes, the absorbance was measured using a microplate reader (SPCTRA MAX 340PC, Molecular Devices, USA) at 570 nm. The absorbance is an indicator showing the number of living cells, and calculated by the following equation. The reproducibility thereof was validated by three experiments.
# (§4) Cell proliferation (%)=OD550(sample)/OD550(control)
# [1] = tested on: HaCaT human epidermal keratinocytes; test: MTT assay cytotoxicity; format: cell-based; details: 24 hours, read-out: IC50 according to MTT assay
# Procedure: (§5) HaCaT human epidermal keratinocytes, # ATCC PCS-200-011) were incubated using Dulbecco's modified Eagle's medium (DMEM, # DMEM-HPA, Capricorn Scientific, Ebsdorfergrund, Germany) in the conditions of 37° C. and 5% CO2. NIH3T3 mouse embryo fibroblasts (# KCLB 21658), RAW264.7 murine macrophages (preosteoclast cell line, # KCLB 40071), HCT116 human colon cancer cells (# KCLB 10247), PC3 human prostate adenocarcinoma cells (# KCLB 21435), HT1080 human fibrosarcoma cells (# KCLB 1121), and B16F10 mouse malignant melanoma cells (# KCLB 80008) were purchased from the Korean Cell Line Bank, and incubated using DMEM in the conditions of 37° C. and 5% C02.
# as §1, §2, §3, §4
# [2] = tested on: RAW264.7 mouse macrophage cell line; test: MTT assay cytotoxicity; format: cell-based; details: RAW264.7, 24 hours
# Procedure: as §5, §1, §2, §3, §4
# [3] = tested on: PC3 human prostate adenocarcinoma; test: MTT assay cytotoxicity; format: cell-based; details: PC3, 24 hours
# Procedure: as §5, §1, §2, §3, §4
# [4] = tested on: ADMSC human Adipose-derived mesenchymal stem cells; test: MTT assay cytotoxicity; format: cell-based; details: 24 hours, read-out: IC50 according to MTT assay
# Procedure: Human adipose-derived mesenchymal stem cells, ADMSCs (CEFO Bio, Seoul, Korea), were incubated using CB-ADMSC-GM (CEFO Bio, Seoul, Korea) in the conditions of 37° C. and 5% CO2.
# as §1, §2, §3, §4
# [5] = US toxic substance regulatory agencies, Not Listed; cited from earlier work
# RUNX2 in MC3T3-E1 cells = test: Western blot, RUNX2 expression; format: cell-based, mouse; details: 50 μM
# Procedure: In order to analyze the expression of osteoblast differentiation markers during a differentiation procedure, 3×10^5 MC3T3-E1 cells were dispensed in a 100 mm culture plate together with 10 mL of complete α-MEM containing ascorbic acid (50 μg/mL) and 10 mM R-glycerophosphate per well. Here, 50 μM osmundacetone was added or not added, and the cells were incubated at 37 […] in a 5% CO2 incubator for 21 days while the medium was exchanged every 3-4 days.
# The negative control cells were cultured without differentiation factors, and the osteoblasts and a culture thereof were dispensed, and then collected on day 7, 14, or 21.
# The cells were lysed using RIPA buffer, and then the expression of runt-related transcription factor 2 (RUNX2) was analyzed. Also for analysis of OCN secretion, the culture was collected, and normalized by cellular DNA.
# Proteins were analyzed using SDS-PAGE on 12.5% […] gels, and transferred on polyvinylidene difluoride (PVDF) membrane through electrophoresis.
# The membrane was blocked using non-fat milk, and examined using anti-RUNX2 (D1H7) rabbit monoclonal antibody (#8486, Cell Signaling Technology, MA, USA) or anti-OCN (FL-95) antibody (# sc-30045, Santa Cruz Biotechnology, TX, USA). Anti-actin antibody (# M177-3, MEDICAL & BIOLOGICAL LABORATORIES CO., LTD., Nagoya, Aichi, Japan) was used as an internal reference.
# Protein bands on the blot were visualized using an enhanced chemiluminescent detection kit (# EBP-1073, PicoEPD Western Reagent, ELPIS-BIOTECH, Daejeon, Korea).
# mature osteoclasts = test: Bone resorption assay (OsteoLyse Assay Kit) with mature osteoclasts; format: cell-based, mouse; details: 8 μM (IC50 concentration), mature osteoclasts treated for 3 days, normalized by cellular DNA
# Procedure: The quantitative measurement of in vitro osteoclast-mediated degradation of human bone collagen was carried out using the OsteoLyse™ Assay Kit (Lonza Walkersville, Inc. Walkersville, Md., USA) according to manufacturer's instructions.
# This assay allows a direct measurement of the release of […] into the osteoclast resorption lacuna (Delaisse et al., 2003).
# Briefly, 2×10^4 mouse bone marrow cells prepared above were dispensed in 96-well OsteoLyse™ cell culture plate coated with europium-conjugated collagen.
# The cells were incubated in 0.1 mL of complete α-MEM per well in the presence of M-CSF (60 ng/mL) and RANKL (150 ng/mL) in the conditions of 37° C. and 5% CO2 for 6 days. Thereafter, the medium was exchanged on day 3 of the dispensing.
# In order to measure the ability to inhibit the mature osteoclastic functions, the medium was exchanged on day 6, and osmundacetone was added at an IC50 concentration obtained from TRAP analysis.
# After the mature osteoclasts were treated with osmundacetone for 3 days, 10 μL of a supernatant of the cell culture was taken, and placed in a second 96-well analysis plate containing fluorophore-Releasing reagent. The degraded collagen was measured using a time-resolved fluorescence fluorimeter, Wallac Victor (Perkin Elmer, Waltham, Mass., USA). […]
structure (smiles),measurement,setting,value
"CC(=O)/C=C/c1ccc(O)c(O)c1 [Osmundacetone, (3E)-4-(3,4-dihydroxyphenyl)-3-buten-2-one]",cell cytotoxicity on normal cell lines,normal cell lines; judged against IC50 of less than 100 μM as active,did not show cell cytotoxicity
same,LD50 for normal cell lines,normal cell lines; summary range,"2,500-5,000 μM"
same,IC50,[1],3.51 ± 0.11 mM
same,LD50 (MTT assay),[2],507 ± 98 µM
same,LD50 (MTT assay),[3],65.5 ± 8.7 µM
same,IC50,[4],2.76 mM
same,"tests of human toxicity, irritation, carcinogenicity, environmental toxicity",[5],harmless and safe
same,"RUNX2 expression level, increase compared with non-treated positive control group",RUNX2 in MC3T3-E1 cells; day 7,1.1 times
same,"RUNX2 expression level, increase compared with non-treated positive control group",RUNX2 in MC3T3-E1 cells; day 14,1.1 times
same,"RUNX2 expression level, increase compared with non-treated positive control group",RUNX2 in MC3T3-E1 cells; day 21,2.1 times
same,"bone resorption function of mature osteoclasts, % that of non-treated osteoclasts",mature osteoclasts,58.7±13%
